Key:
[1] = system: THP-1 LUCIA monocytes; experiment: In vitro safety study: Safety index (Si), activity versus toxicity; type: cell-based, human; settings: for IC50: Homo sapiens, THP-1, highest IC50 among the LPS-challenged assays (NF-κB activity, cytokine, LDH release), read-out: Extrinsic Activity hIC50; for Safety Index TC50/IC50: ratio of intrinsic TC50 to extrinsic hIC50
Experimental: A postanalysis “safety study” was conducted on all QNX-sLXms. For each tested compound, we calculated an in vitro “Safety index” (Si) by relating its “anti-inflammatory half-maximal activity” (the highest dose among the IC50 of the extrinsic LPS-challenged phenotype: NF-κB activity, proinflammatory cytokine, and LDH release) to its intrinsic “toxicity” (expressed as the relative half-maximal LDH-associated cytotoxicity). The generated Si is potentially predictive of a translational “therapeutic” range: the higher the Si, the safer the molecule is. As summarized in Table S4, Si values from all tested compounds fall in a broad range (7–50).

[2] = system: THP-1 LUCIA monocytes; experiment: Intrinsic cytotoxicity: LDH release without LPS; type: cell-based, human; settings: for Intrinsic Toxicity Level: LDH-associated level of cytotoxicity (high / moderate / low); for Intrinsic Toxicity TC50 (pM): half-maximal intrinsic LDH-associated toxic activity, no LPS
Experimental: We investigated the potential cytotoxicity of all candidate sLXms by assaying LDH release.[50] The response to LPS was arbitrarily set to 100%, and values were expressed relative to this. As previously reported by others, LPS provokes LDH release.[51] […] Ultimately, untreated cells defined the spontaneous cell release thresholds.
Lactate dehydrogenase (LDH) was assayed in cell supernatants to investigate possible cytotoxicity of the lead compound. LDH is rapidly released into the culture medium after disruption of the plasma membrane.[67],[69] After 24 h of exposure to sLXms, vehicle, or controls, followed by LPS stimulation, as described above, THP-1-Lucia NF-κB-cell supernatants were collected and LDH was assayed. Cytotoxicity was evaluated relative to vehicle controls. Maximum releasable LDH was determined in cells lysed with 2% Triton-X-100 (Sigma-Aldrich, Ireland). LDH levels were assessed by reading the absorbance at 490 nm (protein) and 690 nm (background noise), using a spectrophotometer (SPECTRAMAX M2, Molecular Devices (U.K.) Limited).

[3] = system: NF-κB; experiment: LPS-induced NF-κB-driven luciferase gene reporter assay in THP-1 Lucia monocytes; type: cell-based, human; settings: for Rel. Slope: HS relative to LXA4 (1); for IC50: Homo sapiens, THP-1, read-out: Potency IC50; for IC50 / IC50 (range in words): LPS 50 ng/mL; for Potency Rel. Pot.: IC50 relative to LXA4 (1); for Efficacy Rel. Eff.: Imax relative to LXA4 (1); for reduction of LPS-induced NF-κB-driven luciferase activity: approximate extent; for (Single component) Rel. Score: Rel. Pot. / (Single component) Rel. Score: Rel. Sl.: score relative to LXA4 (1); for (Aggregate) Rel. PD Score: sum of efficacy, potency, slope scores relative to LXA4 (1); for Slope HS (Hill–Slope): slope of concentration–response curve
Experimental: Mycoplasma-free THP-1-Lucia NF-κB cells were grown in an RPMI 1640 (Gibco) medium containing 2 mM L-glutamine, 1.50 g/L sodium bicarbonate, 4.50 g/L glucose, 10 mM N-(2-hydroxyethyl)piperazine-N′-ethanesulfonic acid (HEPES), and 1 mM sodium pyruvate. Then, 10% heat-inactivated fetal bovine serum (FBS) (30 min at 56 °C), 100 μg/mL Normocin, and Pen-Strep (50 U/mL to 50 μg/mL) were also added to the growth media. As THP-1-Lucia cells were resistant to Zeocin, the latter was used as a selective antibiotic (a high dose, i.e., 100 μg/mL, was alternated every 2 weeks with a low dose, i.e., 10 μg/mL).
LXA41 and all of the tested sLXms were dissolved in ethanol and further diluted in a culture medium (final ethanol concentration 0.1%; equivalent concentrations were used as the vehicle control). Prior to in vitro experiments, THP-1-Lucia NF-κB cells were harvested and plated at 1 × 10^5 cells/well on 96-well plates and left to settle in the incubator at 37 °C, 95% humidity, and 5% CO2, in 0.1% FBS-containing media, pretreated for 30 min with increasing doses of LXA41, sLXms (from 10^–12 to 10^–6 M), or appropriate controls, followed by stimulation with 50 ng/mL LPS for 24 h.
NFκB activity was monitored in the human THP-1 monocytic leukemia cell line containing a stably integrated NF-κB-inducible Lucia reporter construct (as previously reported).[21] When stimulated with LPS, the transcription factor NF-κB is activated, upregulating the synthesis of proinflammatory mediators, thus bringing about an inflammatory response. In these cells, NF-κB activation is linked to a […] luciferase gene and can be measured using luminescence.
Heat-killed listeria monocytogenes (HKLM) (10^8/mL) was used as a positive control.[28] The levels of NF-κB-induced Luciferase were then measured in a culture supernatant using QUANTI-Luc as the detection reagent, and measurements were taken on a bioluminescence reader.
After 24 h, the levels of NF-κB-induced Lucia were assayed in a cell culture supernatant using QUANTI-Luc, as a detection reagent, on a bioluminescence reader (Synergy HT, BioTek Instruments, Inc. Vermont). Aliquots of the supernatant were retained for subsequent cytokine and LDH assays. Cellular proteins were extracted with a radioimmunoprecipitation assay (RIPA) buffer (Thermo Fisher, Ireland), supplemented with protease inhibitors (Sigma-Aldrich, Ireland). Lysates were clarified by centrifugation (3200g, 10’, 4 °C) to remove cell debris, and the cell protein level was quantified by performing a bicinchoninic acid (BCA) assay (as per the manufacturer’s instructions) reading the protein absorbance at 570 nm, using a spectrophotometer (SPECTRAMAX M2, Molecular Devices (U.K.) Limited). A “relative luminescence unit” (RLU) was obtained using the average value of the lum/abs ratio of two replicates.
The “coding” of the heat-map indicates the arbitrary criteria to assign points to each single PD component (efficacy = Imax or Emax; potency = IC50 or EC50; slope = HS) to generate a final (aggregate) relative PD score. […] If a single PD component was equal to the reference level (x = 1), then the single-component relative score was arbitrarily set to 0 (gray). If a single PD component was smaller than the reference level (x < 1), then the single-component relative score was arbitrarily set to −1 (light red) or −2 (dark red). If the curve of a single PD component was best fitting to a flat line (x = 0), then the single-component relative score was arbitrarily set to −4 (purple) (Table S1).

[4] = system: THP-1-MF0 macrophage; experiment: Phagocytosis of fluorescent E. coli bioparticles by THP-1-MF0 macrophages; type: cell-based, human; settings: for EC50: 30 min pretreatment, 2 h bioparticles, read-out: Potency EC50; for (Aggregate) Rel. PD Score / Potency Rel. Pot. / Single comp. score Rel Eff. / Single comp. score Rel. Pot.: relative to LXA4 (1)
Experimental: Mycoplasma-free THP-1 monocytes were grown in an RPMI 1640 (Gibco) medium containing 2 mM L-glutamine, 2.00 g/L sodium bicarbonate, and 2.00 g/L glucose. Then, 10% (v/v) heat-inactivated FBS (30 min at 56 °C) and Pen-Strep (100 U/mL to 100 μg/mL) were supplemented to the growth media.
Cell adherence was allowed for 1 h and 30 min at 37 °C/5% CO2. Cells were then treated for 30 min with controls and phagocytosis effectors for testing (vehicle, LXs, Rvs, or sLXms). Subsequently, media containing controls/effectors were vacuum-aspirated and replaced with a solution containing fluorescently prelabeled E. coli-derived bioparticles and cells were incubated in the dark for 2 h at 37 °C/5% CO2 to allow particle ingestion by monocytes/macrophages. After that, media containing bioparticles were vacuum-aspirated and replaced with a solution containing trypan blue and cells were incubated for 1 min at room temperature to allow quenching of unbound particles to ensure specificity of the fluorescent signal, deriving only from ingested particles (not shown). After aspiration of Trypan, the fluorescence reading was immediately performed at the following conditions: end point; reading from the bottom of the plate; Ex.480/Em.520 nm.

[5] = system: C57bl/6 mice; experiment: Murine carrageenan-induced paw edema; type: in vivo, mouse; settings: for % relative to carageenan-induced level: Veh = 100; for % relative to carageenan-induced level / % reduction relative to carageenan-induced level: (R)-6, (R)-17 2 μg/kg, Naproxen 50 mg/kg p.o.; for Paw swelling Index: Mean: n = 3
Experimental: Then, 50 μL of 1% carrageenan was injected with an equivalent volume of saline injected into the contralateral paw. Inflammation was presented as the difference in paw thickness over time using gauge (POCO 2T; Kroeplin, GmbH, Surrey, U.K.). Data are presented as mean ± SEM, n = 3 mice/treatment group.

Row | IC50 ([3]; 24 h) [nM] | SMILES | IC50 [1] [nM] | Safety Index TC50/IC50 [1] | Intrinsic Toxicity TC50 (pM) [2] | Rel. Slope [3] | Potency Rel. Pot. [3] | Efficacy Rel. Eff. [3] | reduction of LPS-induced NF-κB-driven luciferase activity ([3]; 1 pM–1 μM) | (Single component) Rel. Score: Rel. Pot. [3] | (Single component) Rel. Score: Rel. Sl. [3] | (Aggregate) Rel. PD Score [3] | (Aggregate) Rel. PD Score [4] | Potency Rel. Pot. [4] | other results
1 | 4 | CCC[C@@H](O)c1nc2ccccc2nc1/C=C/[C@@H](O)[C@@H](O)CCCC(=O)OC [(R)-7, Methyl (5S,6R,E)-5,6-Dihydroxy-8-(3-((R)-1-hydroxybutyl)quinoxalin-2-yl)oct-7-enoate] | 0.1 | 20 | 2,000 pM | 0.55 | 0.015 | 1.21 | 30–35% | -2 (x < 0.1) | -1 (0.01 < x < 1) | -2 | – | – | Intrinsic Toxicity Level [2]: Low-Mod.; intrinsic LDH release versus vehicle / spontaneous cell release ([2]; absence of LPS, 24 h, controls Dex 1 μM, 2 1 pM, 5 1 pM): lower than the vehicle; IC50 (range in words) ([3]; 24 h): “nM” range
2 | 1 | CCC[C@H](O)c1nc2ccccc2nc1/C=C/[C@@H](O)[C@@H](O)CCCC(=O)OC [(S)-7, Methyl (5S,6R,E)-5,6-Dihydroxy-8-(3-((S)-1-hydroxybutyl)quinoxalin-2-yl)oct-7-enoate] | 15 | 7 | 110,000 pM | 0.60 | 0.1 | 1.50 | 30–35% | -2 (x < 0.1) | -1 (0.01 < x < 1) | -1 | – | – | Intrinsic Toxicity Level [2]: Low-Mod.; IC50 (range in words) ([3]; 24 h): “nM” range; Slope HS (Hill–Slope) [3]: -6
3 | 0.003 | CCCCC[C@H](O)c1nc2ccccc2nc1/C=C/[C@H]1OC(C)(C)O[C@H]1CCCC(=O)OC [(S)-17, Methyl 4-((4S,5R)-5-((E)-2-(3-((S)-1-Hydroxyhexyl)quinoxalin-2-yl)vinyl)-2,2-dimethyl-1,3-dioxolan-4-yl)butanoate] | 0.003 | 33 | 100 pM | 0 | 24 | 0.79 | least effective | 2 (x ≥ 5) | -4 (x = 0) | -3 | – | – | Imax (%) ([3]; maximal % inhibition of LPS (50 ng/mL)-stimulated NF-κB luciferase activity, 30 min pretreatment, 24 h, 1 pM–1 μM): 19 ± 3%; Slope HS (Hill–Slope) [3]: 0
4 | – | CCCCC[C@H](O)[C@H](O)/C=C/C=C/C=C\C=C\[C@@H](O)CCCC(=O)O [LXB4] | – | – | – | – | – | – | – | – | – | – | -2 | 1 | EC50 [4]: 5 nM; Single comp. score Rel Eff. [4]: -2
5 | – | COc1ccc2cc([C@H](C)C(=O)O)ccc2c1 [Naproxen, reference compound] | – | – | – | – | – | – | – | – | – | – | – | – | % relative to carageenan-induced level ([5]; 4h): 118%; % relative to carageenan-induced level ([5]; 8h): 40%; % relative to carageenan-induced level ([5]; 24h): 55%; % reduction relative to carageenan-induced level ([5]; 48h): 60%; % relative to carageenan-induced level ([5]; 48h): 160%; % reduction relative to carageenan-induced level ([5]; 72h): 450%; % relative to carageenan-induced level ([5]; 72h): 550%; effect on inflammatory response (paw swelling), in words ([5]; (R)-6, (R)-17 2 μg/kg ip, Naproxen 50 mg/kg po): inflammation persisted after 72 h; Paw swelling Index: Mean ([5]; Time 4h, (R)-6, (R)-17 2 μg/kg ip, Naproxen 50 mg/kg po, 1% carrageenan): 0.08; Paw swelling Index: Mean ([5]; Time 8h, (R)-6, (R)-17 2 μg/kg ip, Naproxen 50 mg/kg po): 0.16; Paw swelling Index: Mean ([5]; Time 24h, (R)-6, (R)-17 2 μg/kg ip, Naproxen 50 mg/kg po): 0.48; Paw swelling Index: Mean ([5]; Time 48h, (R)-6, (R)-17 2 μg/kg ip, Naproxen 50 mg/kg po): 0.65; Paw swelling Index: Mean ([5]; Time 72h, (R)-6, (R)-17 2 μg/kg ip, Naproxen 50 mg/kg po): 0.55
6 | – | CC/C=C\C[C@H](O)/C=C/C=C\C=C\C=C\[C@@H](O)[C@@H](O)C/C=C\CCC(=O)O [RvD1] | – | – | – | – | – | – | – | – | – | – | 1 | 10000 | Single comp. score Rel. Pot. [4]: 2 (x ≥ 5)
7 | – | CC[C@@H](O)/C=C/C=C\C[C@@H](O)/C=C/C=C/C=C\[C@@H](O)CCCC(=O)O [RvE1] | – | – | – | – | – | – | – | – | – | – | 0 | 5000 | EC50 [4]: 0.001 nM; Single comp. score Rel Eff. [4]: -2; Single comp. score Rel. Pot. [4]: 2 (x ≥ 5)

Source: paper PMC8279484 (Journal of Medicinal Chemistry, 2021)
